Experimental data: patent US10856562B2, “Flavor composition and edible compositions containing same” (MARS, INCORPORATED, priority 2013, dated 2020)
Entries after “also recorded” stand apart in the source; their conditions may differ. Square brackets hold non-standard residues; d marks the D form. Ends that are not written are not given here. pGlu = O=C1CC[C@@H](C(=O)O)N1

Test system: panelists
Assay: Increased salt perception protocol: salt 5 reference (0.35% salt solution) re-tasted after expectoration of test sample
Type: in vivo, human
Settings: for Astringent, after-expectoration perception / Bitter, after-expectoration perception / Flinty/Mineral, after-expectoration perception / Metallic, after-expectoration perception / Numbing, after-expectoration perception / Salt, after-expectoration perception (mean salt perception after expectoration) / Sour, after-expectoration perception / Sweet, after-expectoration perception: salt 5 reference re-tasted, mean score; for Level of the aromatics, basic tastes and chemical feeling factors after expectoration with increasing concentration / Salt perception from in-mouth to after expectoration: 0.1 to 40.0/50.0 ppb; for Salt perception after expectoration as the concentration increases: 0.1 to 40.0/50.0 ppb in 0.2% NaCl; for Umami like swelling of lips and tongue, after expectoration: all levels; for Salt perception from in-mouth to after expectoration: all samples
Text: 1. Each panelist tasted a salt reference (0.35% salt solution) with a reference salt intensity of 5.0 which provided a baseline for each panelist for salt intensity. 2. Each panelist tasted a test sample (0.1 ppb, 0.5 ppb, 1.0 ppb, 10.0 ppb or 40.0 ppb all in 0.2% NaCl solution). Only one sample was tasted per session. 3. Each panelist re-tasted the salt reference (5.0 intensity) and rated it for salt intensity as well as any other basic taste, chemical feeling factor, or aromatic perceived. Thus, any increased salt perception as a result of the test sample would be determined, as well as any other perceptions present. Attribute Perception Protocol • The panelists evaluated each sample using the following procedure • Descriptive Profiles (flavor and chemical feeling factors) of 5 levels of salt enhancing solutions • Individual data was collected for the flavor and chemical feeling factors of the product in-mouth • Increased Salt Perception Protocol • Each panelist tasted salt 5 reference (0.35% salt solution)—to ground themselves on salt intensity of 5.0. • Each panelist tasted the test sample (0.1 ppb, 0.5 ppb, 1.0 ppb, 10.0 ppb or 40.0/50.0 ppb all in 0.2% NaCl solution: only one per session) • Each panelist then re-tasted the salt 5 reference and rated it for salt intensity as well as any other basic taste, chemical feeling factor, or aromatic perceived. This captured any increased salt perception indicated by the test sample as well as any other perceptions present. • Return to Baseline Protocol • After evaluating the sample for salt & other perceptions, panelists re-tasted the salt 5 reference at 1 minute intervals until their perception of the salt 5 saltiness intensity had returned to 5.0. Each panelist recorded their salt intensity at each interval and took qualitative notes on other perceptions seen in aftertaste. Sample Preparation

Substance: [pGlu]-Val-Leu [SE-13]
- Astringent, after-expectoration perception (0.1 ppb in 0.2% NaCl): 0.0
- Bitter, after-expectoration perception (0.1 ppb in 0.2% NaCl): 0.1
- Flinty/Mineral, after-expectoration perception (0.1 ppb in 0.2% NaCl): 0.1
- Metallic, after-expectoration perception (0.1 ppb in 0.2% NaCl): 0.3
- Numbing, after-expectoration perception (0.1 ppb in 0.2% NaCl): 0.0
- Salt, after-expectoration perception (mean salt perception after expectoration) (0.1 ppb in 0.2% NaCl): 6.8
- Sour, after-expectoration perception (0.1 ppb in 0.2% NaCl): 0.0
- Sweet, after-expectoration perception (0.1 ppb in 0.2% NaCl): 0.0
- Level of the aromatics, basic tastes and chemical feeling factors after expectoration with increasing concentration: do not increase
- Salt perception after expectoration as the concentration increases: increases slightly; also recorded: slight increase
- Salt perception after expectoration as the concentration increases (listed as pGlu-Val-Leu): increased slightly
- Astringent, after-expectoration perception (0.5 ppb in 0.2% NaCl): 0.0
- Bitter, after-expectoration perception (0.5 ppb in 0.2% NaCl): 0.0
- Flinty/Mineral, after-expectoration perception (0.5 ppb in 0.2% NaCl): 0.1
- Metallic, after-expectoration perception (0.5 ppb in 0.2% NaCl): 0.3
- Numbing, after-expectoration perception (0.5 ppb in 0.2% NaCl): 0.1
- Salt, after-expectoration perception (mean salt perception after expectoration) (0.5 ppb in 0.2% NaCl): 6.4
- Sour, after-expectoration perception (0.5 ppb in 0.2% NaCl): 0.0
- Sweet, after-expectoration perception (0.5 ppb in 0.2% NaCl): 0.0
- Astringent, after-expectoration perception (1.0 ppb in 0.2% NaCl): 0.0
- Bitter, after-expectoration perception (1.0 ppb in 0.2% NaCl): 0.0
- Flinty/Mineral, after-expectoration perception (1.0 ppb in 0.2% NaCl): 0.2
- Metallic, after-expectoration perception (1.0 ppb in 0.2% NaCl): 0.1
- Numbing, after-expectoration perception (1.0 ppb in 0.2% NaCl): 0.0
- Salt, after-expectoration perception (mean salt perception after expectoration) (1.0 ppb in 0.2% NaCl): 7.5
- Sour, after-expectoration perception (1.0 ppb in 0.2% NaCl): 0.0
- Sweet, after-expectoration perception (1.0 ppb in 0.2% NaCl): 0.0
- Astringent, after-expectoration perception (10.0 ppb in 0.2% NaCl): 0.0
- Bitter, after-expectoration perception (10.0 ppb in 0.2% NaCl): 0.0
- Flinty/Mineral, after-expectoration perception (10.0 ppb in 0.2% NaCl): 0.1
- Metallic, after-expectoration perception (10.0 ppb in 0.2% NaCl): 0.3
- Numbing, after-expectoration perception (10.0 ppb in 0.2% NaCl): 0.0
- Salt, after-expectoration perception (mean salt perception after expectoration) (10.0 ppb in 0.2% NaCl): 8.2
- Sour, after-expectoration perception (10.0 ppb in 0.2% NaCl): 0.0
- Sweet, after-expectoration perception (10.0 ppb in 0.2% NaCl): 0.0
- Astringent, after-expectoration perception (40.0 ppb in 0.2% NaCl): 0.0
- Bitter, after-expectoration perception (40.0 ppb in 0.2% NaCl): 0.0
- Flinty/Mineral, after-expectoration perception (40.0 ppb in 0.2% NaCl): 0.3
- Metallic, after-expectoration perception (40.0 ppb in 0.2% NaCl): 0.2
- Numbing, after-expectoration perception (40.0 ppb in 0.2% NaCl): 0.0
- Salt, after-expectoration perception (mean salt perception after expectoration) (40.0 ppb in 0.2% NaCl): 8.3
- Sour, after-expectoration perception (40.0 ppb in 0.2% NaCl): 0.0
- Sweet, after-expectoration perception (40.0 ppb in 0.2% NaCl): 0.0
- Umami like swelling of lips and tongue, after expectoration: Panelists also experience Umami like swelling of lips and tongue
- Salt perception from in-mouth to after expectoration: increases after expectoration in all samples; also recorded: noticeable increase
- Salt perception from in-mouth to after expectoration (listed as pGlu-Val-Leu): increased after expectoration in all samples

Substance: [pGlu]-Val-Val [SE-17]
- Astringent, after-expectoration perception (0.1 ppb in 0.2% NaCl): 0.0
- Bitter, after-expectoration perception (0.1 ppb in 0.2% NaCl): 0.0
- Flinty/Mineral, after-expectoration perception (0.1 ppb in 0.2% NaCl): 0.6
- Metallic, after-expectoration perception (0.1 ppb in 0.2% NaCl): 0.0
- Numbing, after-expectoration perception (0.1 ppb in 0.2% NaCl): 0.0
- Salt, after-expectoration perception (mean salt perception after expectoration) (0.1 ppb in 0.2% NaCl): 7.3
- Sour, after-expectoration perception (0.1 ppb in 0.2% NaCl): 0.0
- Sweet, after-expectoration perception (0.1 ppb in 0.2% NaCl): 0.0
- Level of the aromatics, basic tastes and chemical feeling factors after expectoration with increasing concentration: do not increase
- Salt perception after expectoration as the concentration increases: does not increase notably; also recorded: Does not show a notable increase
- Astringent, after-expectoration perception (0.5 ppb in 0.2% NaCl): 0.0
- Bitter, after-expectoration perception (0.5 ppb in 0.2% NaCl): 0.0
- Flinty/Mineral, after-expectoration perception (0.5 ppb in 0.2% NaCl): 0.7
- Metallic, after-expectoration perception (0.5 ppb in 0.2% NaCl): 0.2
- Numbing, after-expectoration perception (0.5 ppb in 0.2% NaCl): 0.0
- Salt, after-expectoration perception (mean salt perception after expectoration) (0.5 ppb in 0.2% NaCl): 8.1
- Sour, after-expectoration perception (0.5 ppb in 0.2% NaCl): 0.0
- Sweet, after-expectoration perception (0.5 ppb in 0.2% NaCl): 0.0
- Astringent, after-expectoration perception (1.0 ppb in 0.2% NaCl): 0.0
- Bitter, after-expectoration perception (1.0 ppb in 0.2% NaCl): 0.0
- Flinty/Mineral, after-expectoration perception (1.0 ppb in 0.2% NaCl): 0.5
- Metallic, after-expectoration perception (1.0 ppb in 0.2% NaCl): 0.0
- Numbing, after-expectoration perception (1.0 ppb in 0.2% NaCl): 0.0
- Salt, after-expectoration perception (mean salt perception after expectoration) (1.0 ppb in 0.2% NaCl): 7.3
- Sour, after-expectoration perception (1.0 ppb in 0.2% NaCl): 0.0
- Sweet, after-expectoration perception (1.0 ppb in 0.2% NaCl): 0.0
- Astringent, after-expectoration perception (10.0 ppb in 0.2% NaCl): 0.0
- Bitter, after-expectoration perception (10.0 ppb in 0.2% NaCl): 0.0
- Flinty/Mineral, after-expectoration perception (10.0 ppb in 0.2% NaCl): 0.3
- Metallic, after-expectoration perception (10.0 ppb in 0.2% NaCl): 0.0
- Numbing, after-expectoration perception (10.0 ppb in 0.2% NaCl): 0.0
- Salt, after-expectoration perception (mean salt perception after expectoration) (10.0 ppb in 0.2% NaCl): 7.2
- Sour, after-expectoration perception (10.0 ppb in 0.2% NaCl): 0.0
- Sweet, after-expectoration perception (10.0 ppb in 0.2% NaCl): 0.0
- Astringent, after-expectoration perception (50.0 ppb in 0.2% NaCl): 0.0
- Bitter, after-expectoration perception (50.0 ppb in 0.2% NaCl): 0.0
- Flinty/Mineral, after-expectoration perception (50.0 ppb in 0.2% NaCl): 0.4
- Metallic, after-expectoration perception (50.0 ppb in 0.2% NaCl): 0.0
- Numbing, after-expectoration perception (50.0 ppb in 0.2% NaCl): 0.0
- Salt, after-expectoration perception (mean salt perception after expectoration) (50.0 ppb in 0.2% NaCl): 7.7
- Sour, after-expectoration perception (50.0 ppb in 0.2% NaCl): 0.0
- Sweet, after-expectoration perception (50.0 ppb in 0.2% NaCl): 0.0
- Umami like swelling of lips and tongue, after expectoration: Panelists also experience Umami like swelling of lips and tongue
- Salt perception from in-mouth to after expectoration: increases after expectoration (from in-mouth) in all samples; also recorded: noticeable increase
